{"source": "patent US20250269072A1", "about": "“PROCESSES FOR PREPARING RADIOLABELLED CONJUGATES” (CENTENARY INSTITUTE OF CANCER MEDICINE AND CELL BIOLOGY, priority 2021, published 2025)", "key": {"[1]": {"assay": "Human studies: radiation dosimetry of subjects 1-4 (Olinda/EXM)", "type": "in vivo", "experimental": "For subjects 1-4, radiation dosimetry was calculated using Olinda/EXM based on the organ biodistribution discussed above.\nTables 7-10 show the estimate for radiation dosimetry for subjects 1˜4 of 200 MBq of ^68Ga NODAGA GSAO for individual organs and for the whole body in mSv/MBq (EDE cont.=effective dose equivalent contribution, ED Cont.=effective dose contribution). The estimated whole-body dose from the one (1) low dose CT and two (2) ultra-low dose CTs was 9.2 mSv."}, "tumour deposits": {"tested_on": "tumour deposits", "assay": "Human studies: tumour uptake by PET and histological correlation", "type": "in vivo", "from_the_text": "patient with squamous cell carcinoma of the oesophagus • 2. Person with metastatic ovarian carcinoma • 3. Person with metastatic cutaneous squamous cell carcinoma • 4. Person with invasive ductal breast carcinoma.\nWhilst blood pool and clearance are reproducible, tumour uptake and clearance vary by tumour type.\nDissected tumours were fixed in formalin, embedded in paraffin and 4 μm thick sections were cut. Adjacent sections were stained for apoptotic cells using TUNEL (Abcam, Cat #206386) or morphology using haematoxylin and eosin. For TUNEL staining, sections were deparaffinized in xylene, rehydrated in decreasing concentrations of ethanol and permeabilized with Proteinase K for 20 min at room temperature. The endogenous peroxidase activity was quenched with 3% H2O2 for 5 min. Apoptotic cells were labelled with biotinylated terminal deoxynucleotidyl transferase at 37° C. in a humidified chamber for 2 h followed by a 30 min incubation with streptavidin-HRP conjugate. HRP-positive cells were developed using diaminobenzidine and sections counterstained with methyl green (Sigma). Whole sections were imaged using PowerMosaic scanning at 10× magnification on a Leica DM6000D microscope."}, "[2]": {"settings": "Red Marrow, subjects 1-4 = the 7th table-the 10th table"}, "[3]": {"settings": "Skin, subjects 1-4 = the 7th table-the 10th table"}, "[4]": {"settings": "Small Intestine, subjects 1-4 = the 7th table-the 10th table"}, "[5]": {"settings": "Spleen, subjects 1-4 = the 7th table-the 10th table"}, "[6]": {"settings": "Stomach Wall, subjects 1-4 = the 7th table-the 10th table"}, "[7]": {"settings": "Testes, subject 1 = the 7th table, subject 3 = the 9th table"}, "[8]": {"settings": "Thymus, subjects 1-4 = the 7th table-the 10th table"}, "[9]": {"settings": "Thyroid, subjects 1-4 = the 7th table-the 10th table"}, "[10]": {"settings": "Total Body, subjects 1-4 = the 7th table-the 10th table"}, "[11]": {"settings": "ULI Wall, subjects 1-4 = the 7th table-the 10th table"}, "[12]": {"settings": "Uterus, subjects 1-4 = the 7th table-the 10th table"}}, "note": "Values joined by “and” are separate entries in the source; they are usually repeats but may differ in a detail not shown here. Equal entries are not always repeated."}
{"smiles": "O=C(O)CNC(=O)[C@H](CSCC(=O)Nc1ccc([As](O)O)cc1)NC(=O)CC[C@H](NC(=O)CCC1C(=O)[O][68Ga]2[O]C(=O)CN3CCN(CCN1CC3)CC(=O)[O]2)C(=O)O", "note": "(some centres unmarked) [^68Ga-NODAGA-GSAO]", "values": [{"measurement": "EDE Cont.", "setting": "[1]; [2]", "result": "1.09E−03 mSv/MBq and 1.30E−03 mSv/MBq and 8.70E−04 mSv/MBq and 1.13E−03 mSv/MBq"}, {"measurement": "Photon dose", "setting": "[1]; [2]", "result": "3.70E−03 mSv/MBq and 4.24E−03 mSv/MBq and 2.96E−03 mSv/MBq and 4.13E−03 mSv/MBq"}, {"measurement": "Total dose", "setting": "[1]; [2]", "result": "9.08E−03 mSv/MBq and 1.08E−02 mSv/MBq and 7.25E−03 mSv/MBq and 9.38E−03 mSv/MBq"}, {"measurement": "Alpha dose", "setting": "[1]; [3]", "result": "0.00E+00", "unit": "mSv/MBq"}, {"measurement": "ED Cont.", "setting": "[1]; [3]", "result": "5.17E−05 mSv/MBq and 7.01E−05 mSv/MBq and 3.66E−05 mSv/MBq and 5.79E−05 mSv/MBq"}, {"measurement": "EDE Cont.", "setting": "[1]; [3]", "result": "0.00E+00", "unit": "mSv/MBq"}, {"measurement": "Photon dose", "setting": "[1]; [3]", "result": "2.03E−03 mSv/MBq and 2.32E−03 mSv/MBq and 1.63E−03 mSv/MBq and 2.26E−03 mSv/MBq"}, {"measurement": "Total dose", "setting": "[1]; [3]", "result": "5.17E−03 mSv/MBq and 7.01E−03 mSv/MBq and 3.66E−03 mSv/MBq and 5.79E−03 mSv/MBq"}, {"measurement": "Alpha dose", "setting": "[1]; [4]", "result": "0.00E+00", "unit": "mSv/MBq"}, {"measurement": "ED Cont.", "setting": "[1]; [4]", "result": "7.19E−05 mSv/MBq and 9.14E−05 mSv/MBq and 6.51E−05 mSv/MBq and 4.60E−05 mSv/MBq"}, {"measurement": "EDE Cont.", "setting": "[1]; [4]", "result": "0.00E+00", "unit": "mSv/MBq"}, {"measurement": "Photon dose", "setting": "[1]; [4]", "result": "5.21E−03 mSv/MBq and 5.57E−03 mSv/MBq and 4.29E−03 mSv/MBq and 5.67E−03 mSv/MBq"}, {"measurement": "Total dose", "setting": "[1]; [4]", "result": "1.44E−02 mSv/MBq and 1.83E−02 mSv/MBq and 1.30E−02 mSv/MBq and 9.20E−03 mSv/MBq"}, {"measurement": "Alpha dose", "setting": "[1]; [5]", "result": "0.00E+00", "unit": "mSv/MBq"}, {"measurement": "Beta dose", "setting": "[1]; [5]", "result": "1.27E−02 mSv/MBq and 1.48E−02 mSv/MBq and 1.09E−02 mSv/MBq and 1.18E−02 mSv/MBq"}, {"measurement": "ED Cont.", "setting": "[1]; [5]", "result": "8.65E−05 mSv/MBq and 1.01E−04 mSv/MBq and 7.35E−05 mSv/MBq and 8.27E−05 mSv/MBq"}, {"measurement": "Photon dose", "setting": "[1]; [5]", "result": "4.57E−03 mSv/MBq and 5.34E−03 mSv/MBq and 3.83E−03 mSv/MBq and 4.70E−03 mSv/MBq"}, {"measurement": "Total dose", "setting": "[1]; [5]", "result": "1.73E−02 mSv/MBq and 2.02E−02 mSv/MBq and 1.47E−02 mSv/MBq and 1.65E−02 mSv/MBq"}, {"measurement": "Alpha dose", "setting": "[1]; [6]", "result": "0.00E+00", "unit": "mSv/MBq"}, {"measurement": "EDE Cont.", "setting": "[1]; [6]", "result": "0.00E+00", "unit": "mSv/MBq"}, {"measurement": "Photon dose", "setting": "[1]; [6]", "result": "3.93E−03 mSv/MBq and 4.97E−03 mSv/MBq and 3.12E−03 mSv/MBq and 4.01E−03 mSv/MBq"}, {"measurement": "Alpha dose", "setting": "[1]; [7]", "result": "0.00E+00", "unit": "mSv/MBq"}, {"measurement": "Beta dose", "setting": "[1]; [7]", "result": "1.37E−02 mSv/MBq and 1.22E−02 mSv/MBq"}, {"measurement": "ED Cont.", "setting": "[1]; [7]", "result": "3.65E−03 mSv/MBq and 3.27E−03 mSv/MBq"}, {"measurement": "EDE Cont.", "setting": "[1]; [7]", "result": "4.56E−03 mSv/MBq and 4.09E−03 mSv/MBq"}, {"measurement": "Photon dose", "setting": "[1]; [7]", "result": "4.58E−03 mSv/MBq and 4.18E−03 mSv/MBq"}, {"measurement": "Total dose", "setting": "[1]; [7]", "result": "1.83E−02 mSv/MBq and 1.64E−02 mSv/MBq"}, {"measurement": "Alpha dose", "setting": "[1]; [8]", "result": "0.00E+00", "unit": "mSv/MBq"}, {"measurement": "ED Cont.", "setting": "[1]; [8]", "result": "3.06E−05 mSv/MBq and 4.18E−05 mSv/MBq and 2.16E−05 mSv/MBq and 3.38E−05 mSv/MBq"}, {"measurement": "EDE Cont.", "setting": "[1]; [8]", "result": "0.00E+00", "unit": "mSv/MBq"}, {"measurement": "Photon dose", "setting": "[1]; [8]", "result": "2.96E−03 mSv/MBq and 3.66E−03 mSv/MBq and 2.30E−03 mSv/MBq and 3.23E−03 mSv/MBq"}, {"measurement": "Total dose", "setting": "[1]; [8]", "result": "6.11E−03 mSv/MBq and 8.36E−03 mSv/MBq and 4.32E−03 mSv/MBq and 6.76E−03 mSv/MBq"}, {"measurement": "Alpha dose", "setting": "[1]; [9]", "result": "0.00E+00", "unit": "mSv/MBq"}, {"measurement": "Beta dose", "setting": "[1]; [9]", "result": "1.12E−02 mSv/MBq and 1.19E−02 mSv/MBq and 8.46E−03 mSv/MBq and 1.34E−02 mSv/MBq"}, {"measurement": "ED Cont.", "setting": "[1]; [9]", "result": "7.05E−04 mSv/MBq and 7.59E−04 mSv/MBq and 5.42E−04 mSv/MBq and 8.18E−04 mSv/MBq"}, {"measurement": "EDE Cont.", "setting": "[1]; [9]", "result": "4.23E−04 mSv/MBq and 4.55E−04 mSv/MBq and 3.25E−04 mSv/MBq and 4.91E−04 mSv/MBq"}, {"measurement": "Photon dose", "setting": "[1]; [9]", "result": "2.86E−03 mSv/MBq and 3.24E−03 mSv/MBq and 2.38E−03 mSv/MBq and 3.00E−03 mSv/MBq"}, {"measurement": "Total dose", "setting": "[1]; [9]", "result": "1.41E−02 mSv/MBq and 1.52E−02 mSv/MBq and 1.08E−02 mSv/MBq and 1.64E−02 mSv/MBq"}, {"measurement": "Alpha dose", "setting": "[1]; [10]", "result": "0.00E+00", "unit": "mSv/MBq"}, {"measurement": "Beta dose", "setting": "[1]; [10]", "result": "6.33E−03 mSv/MBq and 7.76E−03 mSv/MBq and 4.94E−03 mSv/MBq and 6.96E−03 mSv/MBq"}, {"measurement": "ED Cont.", "setting": "[1]; [10]", "result": "0.00E+00", "unit": "mSv/MBq"}, {"measurement": "EDE Cont.", "setting": "[1]; [10]", "result": "0.00E+00", "unit": "mSv/MBq"}, {"measurement": "Photon dose", "setting": "[1]; [10]", "result": "3.44E−03 mSv/MBq and 3.84E−03 mSv/MBq and 2.77E−03 mSv/MBq and 3.92E−03 mSv/MBq"}, {"measurement": "Total dose", "setting": "[1]; [10]", "result": "9.78E−03 mSv/MBq and 1.16E−02 mSv/MBq and 7.71E−03 mSv/MBq and 1.09E−02 mSv/MBq"}, {"measurement": "Alpha dose", "setting": "[1]; [11]", "result": "0.00E+00", "unit": "mSv/MBq"}, {"measurement": "EDE Cont.", "setting": "[1]; [11]", "result": "0.00E+00", "unit": "mSv/MBq"}, {"measurement": "Photon dose", "setting": "[1]; [11]", "result": "5.20E−03 mSv/MBq and 6.02E−03 mSv/MBq and 4.00E−03 mSv/MBq and 5.50E−03 mSv/MBq"}, {"measurement": "Alpha dose", "setting": "[1]; Urinary Bladder Wall, subjects 1-4 = the 7th table-the 10th table", "result": "0.00E+00", "unit": "mSv/MBq"}, {"measurement": "Alpha dose", "setting": "[1]; [12]", "result": "0.00E+00", "unit": "mSv/MBq"}, {"measurement": "Photon dose", "setting": "[1]; [12]", "result": "1.06E−02 mSv/MBq and 8.98E−03 mSv/MBq and 8.36E−03 mSv/MBq and 1.51E−02 mSv/MBq"}, {"measurement": "estimated effective whole-body dose", "setting": "[1]; administered activity of 200 MBq", "result": "4.3-6.8 mSv"}, {"measurement": "estimated effective whole-body dose for the protocol", "setting": "[1]; first in human protocol incl. CTs, subjects 1-4", "result": "13.5-15.9 mSv"}, {"measurement": "effective whole-body dose", "setting": "[1]; range over subjects 1-4", "result": "2.16×10^−2 to 3.38×10^−2 mSv/MBq"}, {"measurement": "overall estimated radiation dose", "setting": "[1]; subject 1", "result": 14.5, "unit": "mSv"}, {"measurement": "overall estimated radiation dose", "setting": "[1]; subject 2", "result": 13.9, "unit": "mSv"}, {"measurement": "overall estimated radiation dose", "setting": "[1]; subject 3", "result": 13.5, "unit": "mSv"}, {"measurement": "overall estimated radiation dose", "setting": "[1]; subject 4", "result": 15.9, "unit": "mSv"}, {"measurement": "Effective Dose", "setting": "[1]; whole body, subjects 1-4 = the 7th table-the 10th table", "result": "2.63E−02 mSv/MBq and 2.35E−02 mSv/MBq and 2.16E−02 mSv/MBq and 3.38E−02 mSv/MBq"}, {"measurement": "tumour uptake SUVmean", "setting": "tumour deposits; breast carcinoma", "result": 1.8}, {"measurement": "correlation of tumour uptake with dead and dying cells", "setting": "tumour deposits; histopathology", "result": "correlate with the proportion of dead and dying cells within the tumour"}, {"measurement": "tumour uptake SUVmean", "setting": "tumour deposits; metastatic cutaneous squamous cell carcinoma", "result": 4.1}, {"measurement": "tumour uptake SUVmean", "setting": "tumour deposits; metastatic ovarian carcinoma", "result": 1.9}, {"measurement": "tumour uptake SUVmean", "setting": "tumour deposits; patient 3, right axillary nodal metastasis", "result": 4.1}, {"measurement": "tumour uptake SUVmean", "setting": "tumour deposits; squamous cell carcinoma of the oesophagus", "result": 3.8}, {"measurement": "tumour uptake relative to blood pool", "setting": "tumour deposits; tumours with high uptake", "result": "up to 2 fold"}]}
